{
  "source": "patent US10959450B2",
  "about": "“Food composition for relieving symptoms of allergic and autoimmune diseases” (priority 2017, dated 2021)",
  "system": "H1N1 flu",
  "assay": "Clinical Trial 6, influenza patient (H1N1 flu)",
  "format": "in vivo",
  "settings": "person; Tamiflu taken for a week",
  "from_the_text": "They were a patient taking Tamiflu against symptoms of H1N1 flu and taking it for a week.",
  "data": [
    {"smiles": "CCOC(=O)C1=C[C@@H](OC(CC)CC)[C@H](NC(C)=O)[C@@H](N)C1", "note": "[Tamiflu]", "values": [
      {"measurement": "improvement of symptoms of H1N1 flu", "value": "minimal"}
    ]}
  ]
}
